Assay results as given in patent publication US20200276139A1 (Evoke Pharma, Inc., priority 2017, published 2020).

How the values were obtained:
[1] = Study METO-IN-006: open-label, randomized, 4-treatment crossover pharmacokinetic/bioequivalence study of intranasal metoclopramide (Gimoti 15, 16, 17 mg) vs Reglan Tablets 10 mg; format: in vivo, human; conditions: for AUC0-inf Inter-CV % (Between-Subject) / AUC0-inf Intra-CV % (Within-Subject) / AUC0-t Inter-CV % (Between-Subject) / AUC0-t Intra-CV % (Within-Subject) / Cmax Inter-CV % (Between-Subject) / Cmax Intra-CV % (Within-Subject): bioequivalence analysis over all treatments
Excerpt: In the study, approximately 108 healthy subjects may be enrolled to allow approximately 100 subjects to complete the study.
The pharmacokinetic study will be an open-label, randomized, 4-treatment, 4-period, 4-sequence crossover study. […] Further, the subjects will undergo screening, in which the eligibility of the subjects will be assessed after completion of inclusion and exclusion criteria. […] Samples will be collected over many hours after the dose. Subjects will return to the clinic after the minimum washout for subsequent doses until the four-period cross-over is completed.
Blood samples will be collected prior to dosing, and at predetermined time periods after each dose. […] Relevant pharmacokinetic parameters will be summarized using descriptive statistics.
Collect blood from a subject. • 2. Gently mix the collected blood prior to centrifugation and place immediately on ice. • 3. Centrifuge the sample in a refrigerated centrifuge. • 4. Immediately following centrifugation, gently remove plasma from the packed cells. • 5. Freeze the plasma samples immediately at approximately −20° C. or lower.

[2] = as above; format: in vivo, human; conditions: overall population; 16 and 17 mg doses; prior comparative bioavailability study
[3] = Reglan package insert; cited from earlier work

AUC0-inf Inter-CV % (Between-Subject) ([1]; Female): 43.72%
AUC0-inf Intra-CV % (Within-Subject) ([1]; Female): 48.14%
AUC0-t Inter-CV % (Between-Subject) ([1]; Female): 43.12%
AUC0-t Intra-CV % (Within-Subject) ([1]; Female): 52.62%
Cmax Inter-CV % (Between-Subject) ([1]; Female): 35.03%
Cmax Intra-CV % (Within-Subject) ([1]; Female): 58.04%
AUC0-inf Inter-CV % (Between-Subject) ([1]; Male): 44.81%
AUC0-inf Intra-CV % (Within-Subject) ([1]; Male): 55.82%
AUC0-t Inter-CV % (Between-Subject) ([1]; Male): 52.65%
AUC0-t Intra-CV % (Within-Subject) ([1]; Male): 62.88%
Cmax Inter-CV % (Between-Subject) ([1]; Male): 54.25%
Cmax Intra-CV % (Within-Subject) ([1]; Male): 78.31%
bioequivalence criteria for AUC [2]: met the bioequivalence criteria
Compound: CCN(CC)CCNC(=O)c1cc(Cl)c(N)cc1OC [metoclopramide, 4-amino-5-chloro-N-(2-(diethylamino)ethyl)-2-methoxybenzamide]
AUC∞, AUCt, and Cmax, women versus men ([1]; each dose of metoclopramide tested): significantly higher in women than in men
Treatment Emergent Adverse Events (TEAEs) and other safety parameters, males vs females ([1]; review of data of both studies): no differences between males and females
plasma protein binding [3]: approximately 30%
volume distribution of metoclopramide [3]: approximately 3.5 L/kg
